Here are results for 22 compounds from patent publication US5232923A, “Catechol derivatives and pharmaceutical preparations containing same” (Mitsui Toatsu Chemicals, Incorporated, priority 1988, dated 1993).

Test [1] deals with production and secretion of NGF in mouse L-M cells. Nature of the test: Promoting activity for the production and secretion of NGF in mouse L-M cells (ELISA of medium after 24 h). The format is cell-based. Conditions: L-M cells; for fold induction at 200 µM / fold induction at 400 µM: Mus musculus, 24 h, fold increase over control (1.00); for fold induction at 200 µM / NGF Concentration: Table 2, sample concentration 0.2 mM; for fold induction at 200 µM: read-out: NGF Increase Ratio; for NGF Concentration / NGF L-M Cell Concentration: 24 hours; for NGF Concentration: mean of four determinations, control 0.34; for fold induction at 400 µM / NGF L-M Cell Concentration: Table 5, 0.4 mM; for fold induction at 400 µM: read-out: NGF L-M Cell Increase Ratio; for NGF L-M Cell Concentration: control 0.87. The protocol:
Promoting activity for the production and secretion of NGF in mouse L-M cells
The medium was cultured for 3 days at a temperature of 37° C. […] The sample of the derivative tested is contained in the medium at a prescribed concentration as illustrated in the Tables. […] Data are expressed as fold increase in NGF content of the medium over that cultivated in the absence of the derivative to be tested. […] Data are presented as the mean of four determinations. The results are illustrated in Tables 1-5.
In general terms: An ELISA detects its analyte on a solid surface through an enzyme-linked reagent.

In test [2] the test system is production and secretion of NGF in mouse brain astroglial cells. As to the kind of experiment: Promoting activity for the production and secretion of NGF in mouse brain astroglial cells (ELISA of medium after 24 h). The class given is cell-based. The note with it: for NGF Concentration / NGF Astroglial Cell Concentration: 24 hours; for NGF Astroglial Cell Concentration: control 31.8. As for the experimental part:
Promoting activity for the production and secretion of NGF in mouse brain astroglial cells
The experiment was performed by inducing astroglial cells from the mouse forebrain to a culture system according to the procedures of S. Furukawa et al. which is described in Biochem. Biophys. Res. Commun., 136, 57-63 (1986).
Forebrains of 8-days old mice were dissected out and cut into small pieces. The pieces were washed with calcium- and magnesium-free phosphate-bufferedsaline (hereinafter abbreviated as PBS), treated with 0.25% trypsin containing PBS at 37° C. for 30 minutes and triturated with a Pasteur pipet to give a suspension. Cells and cell clumps were recovered by centrifugation at 200 xg for 5 minutes. They were cultured in Dulbecco modified Eagle's medium (a product of Gibco Co. hereinafter abbreviated as DMEM) containing 10% fetal calf serum, 50 μ units/ml of penicillin, and 50 μg/ml of streptomycin, for 10 to 14 days with medium changes every 3 days. After completing confluency, the cells were dissociated by trypsin treatment and recultured in new culture flasks. This procedure was repeated further twice and more. The culture became a uniform cell cluster. The cell cluster for use in this invention can be stained not less than 97% in accordance with the PAP staining method (peroxidase/[…] staining method) using anti-human glial fibrillar acidic protein (GFAP) rabbit antiserum. The cells will hereinafter be referred to as astroglial cells.
Astroglial cells were innoculated in 24-well plates having a well surface area of 2.1 cm^2 (a product of Falcon Co.) at a cell density of about 3×10^4 cells/well and cultured for 3 days in DMEM medium supplemented with 10% of fetal calf serum. After completing confluency about ([…]), the medium was changed to DMEM medium (0.5 ml/well) supplemented with 0.5% of bovine serum albumin (fraction V) and cultured for 3 days. The culture was further continued with medium changes every 3 days. After cells were practically synchronized in the quiscent stage, the medium was changed to 0.5 ml of the same medium and containing a prescribed concentration of test sample as illustrated in the Tables. NGF in the medium after cultivating for 24 hours was determined by the ELISA as mentioned above. Data are expressed as fold increase in NGF content over that in the absence of the test sample. The lower detection limit of the ELISA is 0.25 pg/ml and the NGF content of control medium was normally 1-10 pg/0.5 ml/well. Data are presented as the mean of four determinations. The results are illustrated in Tables 1-5.

[3] abbreviates: Mus musculus, 24 h, Table 4, sample concentration 0.4 mM, fold increase over control, read-out: NGF Increase Ratio.
[4] abbreviates: Table 4, sample concentration 0.4 mM.
Setting [5] is: Mus musculus, 24 h, Table 5, 0.4 mM, fold increase over control (1.00), read-out: NGF Astroglial Cell Increase Ratio.

Where two headings read alike, the source gives them in different places.

Consider `CN(C)C(=O)CCc1ccc(O)c(O)c1` [Compound 72], for which the fold induction at 200 µM turned out to be 5.91 in test [1] and 6.5 in test [2] (Mus musculus, 24 h, Table 4, sample concentration 0.2 mM, fold increase over control, read-out: NGF Increase Ratio). In addition, the “NGF Concentration” value is reported as 1.94 ng/well in test [1] and 280.6 ng/well in test [2] (Table 4, sample concentration 0.2 mM).
With `CC(=O)Oc1ccc(CCC(N)=O)cc1OC(C)=O` [Compound 73], the fold induction at 200 µM in test [1] was found to be 5.68. Further, the “NGF Concentration” value amounted to 2.01 ng/well in test [1] and 330.6 ng/well in test [2] (setting [4]). Also, the fold induction at 400 µM in test [2] (setting [3]) was found to be 7.65.
Consider `CCNC(=O)CCc1ccc(OC(C)=O)c(OC(C)=O)c1` [Compound 74], for which, in test [1], the fold induction at 200 µM is 5.85 and the “NGF Concentration” value came to 1.93 ng/well. Besides, the fold induction at 400 µM in test [2] (setting [3]) was 6.53. Further, in test [2] (setting [4]), the “NGF Concentration” value is on record as 282.2 ng/well.
Taken in the same sequence, the figures for `CCNC(=O)Cc1ccc(OC(C)=O)c(OC(C)=O)c1` [Compound 76] were 5.47, 1.88 ng/well, 4.84 and 209.1 ng/well.
Taken in the same sequence, the figures for `CCNC(=O)CCCc1ccc(OC(C)=O)c(OC(C)=O)c1` [Compound 79] were 5.35, 1.82 ng/well, 4.57 and 197.3 ng/well.
For `CC(=O)Oc1ccc(CCC(=O)N(C)C)cc1OC(C)=O` [Compound 81], in test [1], the fold induction at 200 µM was 5.76. Moreover, the “NGF Concentration” value in test [1] amounted to 1.96 ng/well; in test [2] (setting [4]) it was 273.5 ng/well. The fold induction at 400 µM in test [2] (setting [3]) amounted to 6.33.
`CCCCNC(=O)CCc1ccc(O)c(O)c1` [Compound 84, N-n-Butyl-3,4-dihydroxyphenylpropionamide]: in test [1], the fold induction at 400 µM is 6.2 and the “NGF L-M Cell Concentration” value is 5.39 ng/well. Besides, the fold induction at 400 µM in test [2] (setting [5]) came out at 33.1. For the same compound, the “NGF Astroglial Cell Concentration” value in test [2] (Table 5, 0.4 mM) worked out at 539.5 ng/well.
Regarding `CCCCNC(=O)CCc1ccc(OC(C)=O)c(OC(C)=O)c1` [Compound 85, N-n-Butyl-3,4-diacetoxyphenylpropionamide], the fold induction at 400 µM worked out at 6.8 in test [1] and 33.6 in test [2] (setting [5]). The “NGF L-M Cell Concentration” value in test [1] worked out at 5.92 ng/well. The “NGF Astroglial Cell Concentration” value in test [2] (Table 5, 0.4 mM) stood at 547.7 ng/well.
In the case of `CCCCCNC(=O)CCc1ccc(O)c(O)c1` [Compound 86, N-n-Pentyl-3,4-dihydroxyphenylpropionamide], the fold induction at 400 µM in test [1] stood at 6.5; in test [2] (setting [5]), 30.3. In addition, the “NGF L-M Cell Concentration” value in test [1] is 5.66 ng/well. Besides, in test [2] (Table 5, 0.4 mM), the “NGF Astroglial Cell Concentration” value is recorded as 493.9 ng/well.
The like results for `CCCCCCNC(=O)CCc1ccc(O)c(O)c1` [Compound 87, N-n-Hexyl-3,4-dihydroxyphenylpropionamide] were, in that order, 5.8, 12, 5.05 ng/well and 195.6 ng/well.
Turning to `CCCCCCNC(=O)CCc1ccc(OC(C)=O)c(OC(C)=O)c1` [Compound 88, N-n-Hexyl-3,4-diacetoxyphenylpropionamide], the fold induction at 400 µM in test [1] amounted to 6.2; in test [2] (setting [5]) it was 15.8. Besides, in test [1], the “NGF L-M Cell Concentration” value worked out at 5.39 ng/well. Besides, the “NGF Astroglial Cell Concentration” value in test [2] (Table 5, 0.4 mM) came out at 257.5 ng/well.
As to `CCCCCCCCCCCCNC(=O)CCc1ccc(O)c(O)c1` [Compound 89, N-Lauryl-3,4-dihydroxyphenylpropionamide], in test [1], the fold induction at 400 µM was found to be 4.3 and the “NGF L-M Cell Concentration” value was determined as 3.74 ng/well. The fold induction at 400 µM in test [2] (setting [5]) was determined as 5. Also, in test [2] (Table 5, 0.4 mM), the “NGF Astroglial Cell Concentration” value was determined as 81.5 ng/well.
The like results for `CCCCN(C)C(=O)CCc1ccc(O)c(O)c1` [Compound 90, N-n-Butyl-N-methyl-3,4-dihydroxyphenylpropionamide] were, in that order, 6.4, 5.57 ng/well, 30 and 489.0 ng/well.
The like results for `CCCCCCCCCCCCCCCCCCNC(=O)CCc1ccc(O)c(O)c1` [Compound 91, N-Stearyl-3,4-dihydroxyphenylpropionamide] were, in that order, 4.1, 3.57 ng/well, 5.2 and 84.8 ng/well.
Taken in the same sequence, the figures for `CCCCCCN(CCCCCC)C(=O)CCc1ccc(O)c(O)c1` [Compound 92, N,N-Di-n-hexyl-3,4-dihydroxyphenylpropionamide] were 5, 4.35 ng/well, 8.8 and 143.4 ng/well.
In the case of `O=C(CCc1ccc(O)c(O)c1)NC1CCCCC1` [Compound 93, N-Cyclohexyl-3,4-dihydroxyphenylpropionamide], in test [1], the fold induction at 400 µM worked out at 6 and the “NGF L-M Cell Concentration” value is given as 5.22 ng/well. Also, the fold induction at 400 µM in test [2] (setting [5]) came out at 9.9. Besides, the “NGF Astroglial Cell Concentration” value in test [2] (Table 5, 0.4 mM) amounted to 161.4 ng/well.
Taken in the same sequence, the figures for `CN(Cc1ccccc1)C(=O)CCc1ccc(O)c(O)c1` [Compound 94, N-Methyl N-benzyl-3,4-dihydroxyphenylpropionamide] were 5.1, 4.44 ng/well, 5.2 and 84.8 ng/well.
Taken in the same sequence, the figures for `O=C(CCc1ccc(O)c(O)c1)Nc1ccccc1` [Compound 95, N-Phenyl-3,4-dihydroxyphenylpropionamide] were 5.9, 5.13 ng/well, 11.2 and 182.6 ng/well.
The like results for `O=C(CCc1ccc(O)c(O)c1)NC12CC3CC(CC(C3)C1)C2` [Compound 96, N-Adamantyl-3,4-dihydroxyphenylpropionamide] were, in that order, 5.7, 4.96 ng/well, 18 and 293.4 ng/well.
On to `O=C(CCc1ccc(O)c(O)c1)N1CCCCC1` [Compound 97, N-[3-(3,4-Dihydroxyphenyl)propionyl]piperidine], for which the fold induction at 400 µM in test [1] turned out to be 6.2; in test [2] (setting [5]) it was 13.7. Also, in test [1], the “NGF L-M Cell Concentration” value was 5.39 ng/well. Moreover, the “NGF Astroglial Cell Concentration” value in test [2] (Table 5, 0.4 mM) is recorded as 435.7 ng/well.
The like results for `O=C(CCc1ccc(O)c(O)c1)N1CCCC1` [Compound 98, N-[3-(3,4-Dihydroxyphenyl)propionyl]pyrrolidine] were, in that order, 6.1, 12.8, 5.31 ng/well and 407.0 ng/well.
For `O=C(CCc1ccc(O)c(O)c1)N1CCOCC1` [Compound 99, N-[3-(3,4-Dihydroxyphenyl)propionyl]morpholine], in test [1], the fold induction at 400 µM turned out to be 4.8 and the “NGF L-M Cell Concentration” value came out at 4.18 ng/well. For the same compound, the fold induction at 400 µM in test [2] (setting [5]) stood at 5.2. Moreover, in test [2] (Table 5, 0.4 mM), the “NGF Astroglial Cell Concentration” value is reported as 165.4 ng/well.
